Measurements: US20250368666A1, “INDAZOLE COMPOUNDS” (TYRA BIOSCIENCES, INC., priority 2022, published 2025)

Columns and labels:
Assay in all cases: Kinase binding assay (kinase-tagged T7 phage, affinity beads, qPCR), Kd
FGFR3 = target: T1, FGFR3 (Homo sapiens, UniProt P22607); conditions: read-out: FGFR3 (Kd nM)
T1 construct: made in house; host or cells: E. coli (BL21-derived), T7 phage
Protocol: (§1) Kinase-tagged T7 phage strains were prepared in an E. coli host derived from the BL21 strain. E. coli were grown to log-phase and infected with T7 phage and incubated with shaking at 32° C. until lysis. The lysates were centrifuged and filtered to remove cell debris. Streptavidin-coated magnetic beads were treated with biotinylated small molecule ligands for 30 minutes at room temperature to generate affinity resins for kinase assays. The liganded beads were blocked with excess biotin and washed with blocking buffer SeaBlock (Pierce), 1% BSA, 0.05% Tween 20, 1 mM DTT to remove unbound ligand and to reduce non-specific binding.
(§2) Test compounds were prepared as 111× stocks in 100% DMSO. Kds were determined using an 11-point 3-fold compound dilution series with three DMSO control points. […] The compounds were then diluted directly into the assays such that the final concentration of DMSO was 0.9%. All reactions performed in polypropylene 384-well plate. Each was a final volume of 0.02 ml. […] The kinase concentration in the eluates was measured by qPCR.
(§3) Binding constants were calculated with a standard dose-response curve using the Hill equation: […]
(§4) The Hill Slope was set to −1. Curves were fitted using a non-linear least square fit with the Levenberg-Marquardt algorithm.

FGFR3 (V555M) = target: T2, FGFR3 (V555M) (Homo sapiens, UniProt P22607, V555M); conditions: V555M mutant; read-out: FGFR3 (V555M) (Kd nM)
T2 construct: made in house; host or cells: E. coli (BL21-derived), T7 phage
Protocol: as §1, §2, §3, §4

FGFR1 = target: T3, FGFR1 (Homo sapiens, UniProt P11362); conditions: read-out: FGFR1 (Kd nM)
T3 construct: made in house; host or cells: E. coli (BL21-derived), T7 phage
Protocol: as §1, §2, §3, §4

FGFR4 = target: T4, FGFR4 (Homo sapiens, UniProt P22455); conditions: read-out: FGFR4 (Kd nM)
T4 construct: made in house; host or cells: E. coli (BL21-derived), T7 phage
Protocol: as §1, §2, §3, §4

FGFR2 = target: T5, FGFR2 (Homo sapiens, UniProt P21802); conditions: read-out: FGFR2 (Kd nM)
T5 construct: made in house; host or cells: E. coli (BL21-derived), T7 phage
Protocol: as §1, §2, §3, §4

T5 sequence (P21802 22-821): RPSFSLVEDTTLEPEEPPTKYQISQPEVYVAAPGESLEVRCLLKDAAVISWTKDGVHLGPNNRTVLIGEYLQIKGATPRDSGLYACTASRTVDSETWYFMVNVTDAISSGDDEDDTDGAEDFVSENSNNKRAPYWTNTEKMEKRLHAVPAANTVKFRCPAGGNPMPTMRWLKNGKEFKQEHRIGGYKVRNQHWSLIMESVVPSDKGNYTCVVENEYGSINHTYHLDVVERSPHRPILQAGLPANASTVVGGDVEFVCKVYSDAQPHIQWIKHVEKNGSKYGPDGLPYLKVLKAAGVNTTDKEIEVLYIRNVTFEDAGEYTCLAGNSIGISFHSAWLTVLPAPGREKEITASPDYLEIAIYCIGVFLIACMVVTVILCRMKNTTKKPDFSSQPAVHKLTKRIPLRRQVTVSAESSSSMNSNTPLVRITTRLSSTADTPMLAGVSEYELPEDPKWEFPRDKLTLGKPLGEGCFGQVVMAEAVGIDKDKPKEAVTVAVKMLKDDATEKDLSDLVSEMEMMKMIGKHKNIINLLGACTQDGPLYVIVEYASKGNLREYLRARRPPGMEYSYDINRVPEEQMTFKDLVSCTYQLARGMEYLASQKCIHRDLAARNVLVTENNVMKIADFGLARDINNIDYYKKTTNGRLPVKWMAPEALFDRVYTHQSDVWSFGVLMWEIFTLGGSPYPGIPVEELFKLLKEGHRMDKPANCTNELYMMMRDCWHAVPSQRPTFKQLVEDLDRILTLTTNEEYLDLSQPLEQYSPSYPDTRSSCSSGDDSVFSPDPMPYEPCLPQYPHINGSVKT
T3 sequence (P11362 22-822): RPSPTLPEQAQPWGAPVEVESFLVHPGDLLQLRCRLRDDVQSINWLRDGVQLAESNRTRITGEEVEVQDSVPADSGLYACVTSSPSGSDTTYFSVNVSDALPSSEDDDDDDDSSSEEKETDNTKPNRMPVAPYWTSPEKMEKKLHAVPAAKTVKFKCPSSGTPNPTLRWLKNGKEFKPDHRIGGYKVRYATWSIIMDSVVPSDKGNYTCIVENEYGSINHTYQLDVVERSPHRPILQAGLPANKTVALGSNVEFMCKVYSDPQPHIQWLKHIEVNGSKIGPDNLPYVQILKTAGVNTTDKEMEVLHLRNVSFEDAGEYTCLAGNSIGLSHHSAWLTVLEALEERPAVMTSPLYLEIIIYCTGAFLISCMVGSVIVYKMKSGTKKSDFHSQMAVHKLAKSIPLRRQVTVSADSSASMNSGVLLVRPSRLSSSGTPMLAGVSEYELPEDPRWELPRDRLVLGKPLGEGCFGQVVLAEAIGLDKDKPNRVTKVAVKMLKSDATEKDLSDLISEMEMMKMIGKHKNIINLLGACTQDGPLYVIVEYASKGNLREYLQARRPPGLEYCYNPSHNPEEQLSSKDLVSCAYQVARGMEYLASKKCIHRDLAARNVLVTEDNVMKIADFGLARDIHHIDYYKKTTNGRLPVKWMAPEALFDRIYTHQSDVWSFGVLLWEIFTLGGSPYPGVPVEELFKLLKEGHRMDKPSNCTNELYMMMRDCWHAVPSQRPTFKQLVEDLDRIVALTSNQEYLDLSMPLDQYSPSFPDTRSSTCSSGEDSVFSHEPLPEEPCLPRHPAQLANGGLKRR
T1 sequence (P22607 23-806): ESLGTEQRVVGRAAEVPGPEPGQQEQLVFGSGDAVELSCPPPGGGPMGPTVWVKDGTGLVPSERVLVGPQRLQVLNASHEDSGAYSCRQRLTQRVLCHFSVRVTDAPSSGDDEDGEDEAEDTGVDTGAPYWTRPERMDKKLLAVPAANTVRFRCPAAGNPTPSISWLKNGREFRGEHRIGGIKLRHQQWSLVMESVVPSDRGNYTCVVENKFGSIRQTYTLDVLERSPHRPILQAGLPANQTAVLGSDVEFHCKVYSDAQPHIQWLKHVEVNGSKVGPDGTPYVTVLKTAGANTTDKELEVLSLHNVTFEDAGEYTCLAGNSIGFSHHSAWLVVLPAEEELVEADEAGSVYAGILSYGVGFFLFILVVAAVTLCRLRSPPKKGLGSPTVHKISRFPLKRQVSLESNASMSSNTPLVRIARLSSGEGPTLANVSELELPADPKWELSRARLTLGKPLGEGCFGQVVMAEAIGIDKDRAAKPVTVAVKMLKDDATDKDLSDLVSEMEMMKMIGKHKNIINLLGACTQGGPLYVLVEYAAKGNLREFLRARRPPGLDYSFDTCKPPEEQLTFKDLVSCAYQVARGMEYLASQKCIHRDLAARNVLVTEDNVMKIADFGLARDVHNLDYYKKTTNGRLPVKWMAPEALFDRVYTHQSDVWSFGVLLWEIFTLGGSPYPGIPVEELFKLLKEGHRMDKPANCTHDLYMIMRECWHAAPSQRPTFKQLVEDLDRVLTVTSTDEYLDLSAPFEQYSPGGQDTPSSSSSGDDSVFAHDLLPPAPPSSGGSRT
T4 sequence (P22455 22-802): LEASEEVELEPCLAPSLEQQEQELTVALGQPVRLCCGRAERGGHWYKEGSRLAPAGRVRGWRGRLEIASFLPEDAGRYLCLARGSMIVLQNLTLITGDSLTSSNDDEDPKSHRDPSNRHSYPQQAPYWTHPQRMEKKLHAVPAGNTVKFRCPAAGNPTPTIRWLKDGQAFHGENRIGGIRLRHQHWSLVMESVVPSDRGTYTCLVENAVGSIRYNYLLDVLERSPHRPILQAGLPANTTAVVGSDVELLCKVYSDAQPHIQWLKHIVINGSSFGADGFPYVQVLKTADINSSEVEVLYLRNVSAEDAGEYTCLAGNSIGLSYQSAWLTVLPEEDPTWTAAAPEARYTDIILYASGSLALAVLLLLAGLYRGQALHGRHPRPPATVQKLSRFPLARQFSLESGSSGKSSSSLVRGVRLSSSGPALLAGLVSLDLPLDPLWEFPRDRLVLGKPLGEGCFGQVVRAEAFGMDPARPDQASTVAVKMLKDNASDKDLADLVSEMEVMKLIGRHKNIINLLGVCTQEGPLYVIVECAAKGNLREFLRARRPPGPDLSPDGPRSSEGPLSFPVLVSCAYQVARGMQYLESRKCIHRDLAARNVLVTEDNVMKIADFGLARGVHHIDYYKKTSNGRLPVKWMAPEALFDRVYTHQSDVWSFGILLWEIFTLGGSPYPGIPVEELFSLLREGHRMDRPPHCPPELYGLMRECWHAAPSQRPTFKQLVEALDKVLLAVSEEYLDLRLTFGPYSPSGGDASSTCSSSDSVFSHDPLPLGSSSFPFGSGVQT
T2 sequence (P22607 23-806 V555M): as the sequence (P22607 23-806) above, with V533M counted along it

## COCCN(C)C1(C)CN(c2ncc(-c3n[nH]c4ccc(O[C@H](C)c5c(Cl)cncc5Cl)cc34)cc2F)C1 [Example 85, (R)-1-(5-(5-(1-(3,5-dichloropyridin-4-yl)ethoxy)-1H-indazol-3-yl)-3-fluoropyridin-2-yl)-N-(2-methoxyethyl)-N,3-dimethylazetidin-3-amine]
FGFR3
  Kd: 1 to 50 nM
FGFR3 (V555M)
  Kd: 1 to 50 nM
FGFR1
  Kd: 1 to 50 nM
FGFR4
  Kd: 1 to 50 nM
FGFR2
  Kd: 1 to 50 nM

## COc1cc2[nH]nc(-c3cnc(N4CC(C)(NCCO)C4)nc3)c2cc1O[C@H](C)c1c(Cl)cncc1Cl [Example 86, (R)-2-((1-(5-(5-(1-(3,5-dichloropyridin-4-yl)ethoxy)-6-methoxy-1H-indazol-3-yl)pyrimidin-2-yl)-3-methylazetidin-3-yl)amino)ethan-1-ol]
FGFR3
  Kd: 1 to 50 nM
FGFR3 (V555M)
  Kd: 1 to 50 nM
FGFR1
  Kd: 1 to 50 nM
FGFR4
  Kd: 1 to 50 nM
FGFR2
  Kd: 1 to 50 nM

## C[C@@H](Oc1ccc2[nH]nc(-c3ccc(N4CC(C)(OCCO)C4)nc3)c2c1)c1c(Cl)cncc1Cl [Example 92, (R)-2-((1-(5-(5-(1-(3,5-dichloropyridin-4-yl)ethoxy)-1H-indazol-3-yl)pyridin-2-yl)-3-methylazetidin-3-yl)oxy)ethan-1-ol]
FGFR3
  Kd: 1 to 50 nM
FGFR3 (V555M)
  Kd: 1 to 50 nM
FGFR1
  Kd: 1 to 50 nM
FGFR4
  Kd: 1 to 50 nM
FGFR2
  Kd: 1 to 50 nM

## C[C@@H](Oc1ccc2[nH]nc(-c3ccc(N4CC(C)(N5CCOCC5)C4)nc3)c2c1)c1c(Cl)cncc1Cl [Example 94, 4-[1-[5-[5-[(1R)-1-(3,5-dichloro-4-pyridyl)ethoxy]-1H-indazol-3-yl]-2-pyridyl]-3-methyl-azetidin-3-yl]morpholine]
FGFR3
  Kd: 1 to 50 nM
FGFR3 (V555M)
  Kd: 1 to 50 nM
FGFR1
  Kd: 1 to 50 nM
FGFR4
  Kd: 1 to 50 nM
FGFR2
  Kd: 1 to 50 nM

## C[C@@H](O)CNC1(C)CN(c2ncc(-c3n[nH]c4ccc(O[C@H](C)c5c(Cl)cncc5Cl)cc34)cc2F)C1 [Example 104, (R)-1-((1-(5-(5-((R)-1-(3,5-dichloropyridin-4-yl)ethoxy)-1H-indazol-3-yl)-3-fluoropyridin-2-yl)-3-methylazetidin-3-yl)amino)propan-2-ol]
FGFR3
  Kd: 1 to 50 nM
FGFR3 (V555M)
  Kd: 1 to 50 nM
FGFR1
  Kd: 1 to 50 nM
FGFR4
  Kd: 1 to 50 nM
FGFR2
  Kd: 1 to 50 nM

## C[C@@H](Oc1ccc2[nH]nc(-c3cnc(N4CC(C)(N5CCCC5)C4)c(F)c3)c2c1)c1c(Cl)cncc1Cl [Example 107, (R)-5-(1-(3,5-dichloropyridin-4-yl)ethoxy)-3-(5-fluoro-6-(3-methyl-3-(pyrrolidin-1-yl)azetidin-1-yl)pyridin-3-yl)-1H-indazole]
FGFR3
  Kd: 1 to 50 nM
FGFR3 (V555M)
  Kd: 1 to 50 nM
FGFR1
  Kd: 1 to 50 nM
FGFR4
  Kd: 1 to 50 nM
FGFR2
  Kd: 1 to 50 nM

## C[C@@H](Oc1ccc2[nH]nc(-c3cnc(N4CC(C)(NCC5(O)CC5)C4)c(C#N)c3)c2c1)c1c(Cl)cncc1Cl [Example 120, (R)-5-(5-(1-(3,5-dichloropyridin-4-yl)ethoxy)-1H-indazol-3-yl)-2-(3-(((1-hydroxycyclopropyl)meth-yl)amino)-3-methylazetidin-1-yl)nicotinonitrile]
FGFR3
  Kd: 1 to 50 nM
FGFR3 (V555M)
  Kd: 1 to 50 nM
FGFR1
  Kd: 1 to 50 nM
FGFR4
  Kd: 1 to 50 nM
FGFR2
  Kd: 50 to 300 nM

## C[C@@H](Oc1ccc2[nH]nc(-c3cnc(N4CC(C)(CP(C)(C)=O)C4)c(F)c3)c2c1)c1c(Cl)cncc1Cl [Example 121, (R)-((1-(5-(5-(1-(3,5-dichloropyridin-4-yl)ethoxy)-1H-indazol-3-yl)-3-fluoropyridin-2-yl)-3-methylazetidin-3-yl)methyl)dimethylphos-phine oxide]
FGFR3
  Kd: 1 to 50 nM
FGFR3 (V555M)
  Kd: 1 to 50 nM
FGFR1
  Kd: 1 to 50 nM
FGFR4
  Kd: 1 to 50 nM
FGFR2
  Kd: 1 to 50 nM

## C[C@@H](Oc1ccc2[nH]nc(-c3ccc(N4CC(C)(NCC(F)F)C4)nc3)c2c1)c1c(Cl)cncc1Cl [Example 125, 1-[5-[5-[(1R)-1-(3,5-dichloro-4-pyridyl)ethoxy]-1H-indazol-3-yl]-2-pyridyl]-N-(2,2-difluoroethyl)-3-methyl-azetidin-3-amine]
FGFR3
  Kd: 1 to 50 nM
FGFR3 (V555M)
  Kd: 1 to 50 nM
FGFR1
  Kd: 1 to 50 nM
FGFR4
  Kd: 1 to 50 nM
FGFR2
  Kd: 1 to 50 nM

## C[C@@H](Oc1cc2c(-c3cnc(N4CC(C)(N(C)C)C4)c(F)c3)n[nH]c2cc1F)c1c(Cl)cncc1Cl [Example 130, 1-[5-[5-[(1R)-1-(3,5-dichloro-4-pyridyl)ethoxy]-6-fluoro-1H-indazol-3-yl]-3-fluoro-2-pyridyl]-N,N,3-trimethyl-azetidin-3-amine]
FGFR3
  Kd: 1 to 50 nM
FGFR3 (V555M)
  Kd: 1 to 50 nM
FGFR1
  Kd: 1 to 50 nM
FGFR4
  Kd: 1 to 50 nM
FGFR2
  Kd: 1 to 50 nM

## C[C@@H](Oc1ccc2[nH]nc(-c3ccc(N4CC(C)(N5CC(C)(O)C5)C4)nc3)c2c1)c1c(Cl)cncc1Cl [Example 157, 1-[1-[5-[5-[(1R)-1-(3,5-dichloro-4-pyridyl)ethoxy]-1H-indazol-3-yl]-2-pyridyl]-3-methyl-azetidin-3-yl]-3-methyl-azetidin-3-ol]
FGFR3
  Kd: 1 to 50 nM
FGFR3 (V555M)
  Kd: 1 to 50 nM
FGFR1
  Kd: 1 to 50 nM
FGFR4
  Kd: 1 to 50 nM
FGFR2
  Kd: 1 to 50 nM

## C[C@@H](Oc1ccc2[nH]nc(-c3cnc(N4CC(C)(C(=O)NCCO)C4)c(F)c3)c2c1)c1c(Cl)cncc1Cl [Example 162, 1-[5-[5-[(1R)-1-(3,5-dichloro-4-pyridyl)ethoxy]-1H-indazol-3-yl]-3-fluoro-2-pyridyl]-N-(2-hydroxyethyl)-3-methyl-azetidine-3-carboxamide]
FGFR3
  Kd: 1 to 50 nM
FGFR3 (V555M)
  Kd: 1 to 50 nM
FGFR1
  Kd: 1 to 50 nM
FGFR4
  Kd: 1 to 50 nM
FGFR2
  Kd: 1 to 50 nM

## C[C@@H](Oc1cc2c(-c3cnc(N4CC(C)(N5CCC5)C4)c(F)c3)n[nH]c2cc1F)c1c(Cl)cncc1Cl [Example 163, 3-[6-[3-(azetidin-1-yl)-3-methyl-azetidin-1-yl]-5-fluoro-3-pyridyl]-5-[(1R)-1-(3,5-dichloro-4-pyridyl)ethoxy]-6-fluoro-1H-indazole]
FGFR3
  Kd: 1 to 50 nM
FGFR3 (V555M)
  Kd: 1 to 50 nM
FGFR1
  Kd: 1 to 50 nM
FGFR4
  Kd: 1 to 50 nM
FGFR2
  Kd: 1 to 50 nM

## COc1cc2[nH]nc(-c3cnc(N4CC(C)(NCCO)C4)c(F)c3)c2cc1O[C@H](C)c1c(Cl)cncc1Cl [Example 164, (R)-2-((1-(5-(5-(1-(3,5-dichloro-pyridin-4-yl)ethoxy)-6-methoxy-1H-indazol-3-yl)-3-fluoropyridin-2-yl)-3-methylazetidin-3-yl)amino)ethan-1-ol]
FGFR3
  Kd: 1 to 50 nM
FGFR3 (V555M)
  Kd: 1 to 50 nM
FGFR1
  Kd: 1 to 50 nM
FGFR4
  Kd: 1 to 50 nM
FGFR2
  Kd: 1 to 50 nM

## C[C@@H](Oc1cc2c(-c3cnc(N4CC(C)(NCCO)C4)c(F)c3)n[nH]c2cc1F)c1c(Cl)cncc1Cl [Example 165]
FGFR3
  Kd: 1 to 50 nM
FGFR3 (V555M)
  Kd: 1 to 50 nM
FGFR1
  Kd: 1 to 50 nM
FGFR4
  Kd: 1 to 50 nM
FGFR2
  Kd: 1 to 50 nM

## C[C@@H](Oc1ccc2[nH]nc(-c3cnc(N4CC(C)(N5CCCC5)C4)c(F)c3)c2c1F)c1c(Cl)cncc1Cl [Example 168, (R)-5-(1-(3,5-dichloropyridin-4-yl)ethoxy)-4-fluoro-3-(5-fluoro-6-(3-methyl-3-(pyrrolidin-1-yl)azetidin-1-yl)pyridin-3-yl)-1H-indazole]
FGFR3
  Kd: 1 to 50 nM
FGFR3 (V555M)
  Kd: 1 to 50 nM
FGFR1
  Kd: 50 to 300 nM
FGFR4
  Kd: 50 to 300 nM
FGFR2
  Kd: 50 to 300 nM
